Assay [1] is described as follows: Displacement of Cy5-labelled (position-4) ATP from human HSP70 expressed in Escherichia coli BL21(DE3) after 16 hrs by microarray assay.
A short description of assay [2]: Displacement of Cy5-labelled (position-4) ATP from Mycobacterium tuberculosis HSP70 expressed in Escherichia coli BL21(DE3) after 16 hrs by microarray assay.
The species named for a further assay is Homo sapiens. Nature of the assay: Binding affinity to human HSP70 expressed in Escherichia coli BL21(DE3) at 100 uM after 16 hrs microarray assay.

Results on six compounds are retold here after ChEMBL document CHEMBL4177614, “Development of a microarray-based assay for efficient testing of new HSP70/DnaK inhibitors” (Bioorg Med Chem, 2017).

Broadly, the EC50 is the concentration that produces a half-maximal response. One may read the Kd as the free concentration of one partner at which half of the binding sites on the other are occupied at equilibrium, for simple one-to-one binding. High values mean weaker binding, low ones tighter binding.

The structures appear in SMILES notation. Activity calls are given as the source filed them. The calls are words filed in the database; no cut-off is given here.

On to `CC[N+]1=C(/C=C/C=C/C=C2/N(CCCCCC(=O)NCCCCCCNc3ncnc4c3ncn4[C@@H]3O[C@H](COP(=O)(O)OP(=O)(O)OP(=O)(O)O)[C@@H](O)[C@H]3O)c3ccc(S(=O)(=O)O)cc3C2(C)C)C(C)(C)c2cc(S(=O)(=O)[O-])ccc21`, for which a half-maximal effect in assay [1] (EC50) was put at 484 nM. In assay [2], the dissociation constant (Kd) worked out at 30600 nM.

Consider `COc1ccc(-c2c(O)c(O)c(-c3ccc(OC)cc3)c(OC)c2OC)cc1`, for which, in assay [1], the EC50 stood at 49000 nM.

Turning to `CC[N+]1=C(/C=C/C=C/C=C2/N(CCCCCC(=O)NCCCCCCNP(=O)(O)OP(=O)(O)OP(=O)(O)OC[C@H]3O[C@@H](n4cnc5c(N)ncnc54)[C@H](O)[C@@H]3O)c3ccc(S(=O)(=O)O)cc3C2(C)C)C(C)(C)c2cc(S(=O)(=O)[O-])ccc21`, in the assay filed under Homo sapiens, the outcome was inactive.

With `Nc1ncnc2c1ncn2[C@@H]1O[C@H](COP(=O)(O)OP(=O)(O)OP(=O)(O)O)[C@@H](O)[C@H]1O` [ADENOSINE TRIPHOSPHATE], the EC50 in assay [1] and in assay [2] was 1 nM throughout. The Kd in assay [1] and in assay [2] was 37 nM each time.

As for `COc1ccc(-c2c(OC)c(O)c(-c3ccc(O)cc3)c(O)c2OC)cc1`, in assay [1], the half-maximal effective concentration (EC50) was determined as 29000 nM.

The compound `CC[N+]1=C(/C=C/C=C/C=C2/N(CCCCCC(=O)NCCCCCCNc3nc4c(N)ncnc4n3[C@@H]3O[C@H](COP(=O)(O)OP(=O)(O)OP(=O)(O)O)[C@@H](O)[C@H]3O)c3ccc(S(=O)(=O)O)cc3C2(C)C)C(C)(C)c2cc(S(=O)(=O)[O-])ccc21` had a Kd in assay [1] of 2300 nM.
